Paper PMC5653977 (EMBO Molecular Medicine, 2017)
Counter-ions that a name gives are not always drawn. Like-named read-outs stand apart in the source and are kept apart here.

Tested on: NRG1-ERBB4 signaling
Assay: Nrg1-ERBB4-PIK3R1 split TEV co-culture compound screen of the NIH Clinical Collection
Type: cell-based, human
[1] = NIH Clinical Collection NCC-003 raw data, compounds ranked by Z-score, 'flagged' given instead of a Z-score
[2] = compound screen of the NIH Clinical Collection, sheet raw data NCC-003, compounds ranked by Z-score
[3] = compounds at 10 μM, 24 h, PC12 split TEV assay cells co-cultured with Nrg1-expressing PC12 cells, analysed with cellHTS2

Row | Compound | Z-SCORE [2] | Z-SCORE [3] | also measured
1 | CC(=O)[C@H]1CC[C@H]2[C@@H]3CCC4=CC(=O)CC[C@]4(C)[C@H]3CC[C@]12C [PROGESTERONE] |  |  | Z-SCORE [1]: -1.2
2 | COc1cc(/C=C/c2ccc(O)cc2)cc(OC)c1 [PTEROSTILBENE] | -0.71 |  | 
3 | C[n+]1ccccc1/C=N/O.[Cl-] [PYRIDINE-2-ALDOXIME METHOCHLORIDE, reference compound] |  | 2.7 | 
4 | CNCCC=C1c2ccccc2CCc2ccccc21 [Pamelor, reference compound] |  | 0.41 | 
5 | CC(=O)O[C@H]1C[C@@H]2CC[C@@H]3[C@H](CC[C@@]4(C)[C@H]3C[C@H]([N+]3(C)CCCCC3)[C@@H]4OC(C)=O)[C@@]2(C)C[C@@H]1[N+]1(C)CCCCC1 [Pancuronium] | -0.32 |  | 
6 | Fc1ccc([C@@H]2CCNC[C@H]2COc2ccc3c(c2)OCO3)cc1 [Paroxetine, reference compound] | 2.09 | -0.28 | Z-SCORE (compound screen of the NIH Clinical Collection, sheet raw data NCC-003, compounds ranked by Z-score, listed as PAROXETINE): 1.3
7 | NC1=NC(=O)C(c2ccccc2)O1 (stereo not drawn) [Pemoline] | -0.71 |  | 
8 | CC1(C)S[C@@H]2[C@H](NC(=O)COc3ccccc3)C(=O)N2[C@H]1C(=O)O [Penicillin V, reference compound] |  | 0.66 | 
9 | CC(=O)CCCCn1c(=O)c2c(ncn2C)n(C)c1=O [Pentoxifylline] | -0.43 |  | 
10 | CC1(C)S[C@@H]2[C@H](NC(=O)Cc3ccccc3)C(=O)N2[C@H]1C(=O)O [Pfizerpen, reference compound] |  | -0.19 | 
11 | NNCCc1ccccc1 [Phenelzine, reference compound] |  | -0.21 | 
12 | CC(CN1c2ccccc2Sc2ccccc21)N(C)C (stereo not drawn) [Phenergan, reference compound] |  | 0.41 | 
13 | CC1=C(C/C=C(\C)CCC[C@H](C)CCC[C@H](C)CCCC(C)C)C(=O)c2ccccc2C1=O [Phylloquinone, reference compound] |  | -0.1 | 
14 | CNC(=O)Oc1ccc2c(c1)[C@]1(C)CCN(C)[C@@H]1N2C [Physostigmine] | 0.16 |  | 
15 | CC(N/C(=N\C#N)Nc1ccncc1)C(C)(C)C (stereo not drawn) [Pinacidil monohydrate] | 0.85 |  | 
16 | c1cnc(N2CCN(Cc3ccc4c(c3)OCO4)CC2)nc1 [Piribedil] | 1.22 |  | 
17 | CN1C(C(=O)Nc2ccccn2)=C(O)c2ccccc2S1(=O)=O [Piroxicam] | 0.27 |  | 
18 | CN1CCC(=C2c3ccccc3CCc3sccc32)CC1 [Pizotyline] | -0.22 |  | 
19 | COc1cc([C@@H]2c3cc4c(cc3[C@H](O)[C@H]3COC(=O)[C@H]23)OCO4)cc(OC)c1OC [Podofilox, reference compound] |  | flagged | 
20 | CCCN[C@H]1CCc2nc(N)sc2C1 [Pramipexole] | -0.29 |  | 
21 | C[C@]12C=CC(=O)C=C1CC[C@@H]1[C@@H]2[C@@H](O)C[C@@]2(C)[C@H]1CC[C@]2(O)C(=O)CO [Prednisolone, reference compound] |  | -1.95 | 
22 | C[C@]12C=CC(=O)C=C1CC[C@@H]1[C@@H]2C(=O)C[C@@]2(C)[C@H]1CC[C@]2(O)C(=O)CO [Prednisone, reference compound] |  | -0.15 | 
23 | COc1cc(NC(C)CCCN)c2ncccc2c1 (stereo not drawn) [Primaquine Diphosphate, reference compound] |  | -0.7 | 

Row | Compound | Z-SCORE [2] | Z-SCORE [3] | also measured
24 | CCC1(c2ccccc2)C(=O)NCNC1=O [Primidone, reference compound] |  | 1.6 | 
25 | c1ccc(CC2=NCCN2)cc1 [Priscoline, reference compound] |  | 1.86 | 
26 | COc1ccc(OC)c(C(O)CNC(=O)CN)c1 (stereo not drawn) [Pro-Amatine, reference compound] |  | 0.01 | 
27 | CC(C)[N+](C)(CCOC(=O)C1c2ccccc2Oc2ccccc21)C(C)C [Pro-Banthine, reference compound] |  | -0.77 | 
28 | CCCN(CCC)S(=O)(=O)c1ccc(C(=O)O)cc1 [Probenecid, reference compound] |  | 1.6 | 
29 | CCN(CC)CCNC(=O)c1ccc(N)cc1 [Pronestyl, reference compound] |  | 0.04 | 
30 | CCCOc1ccc(C(=O)OCCN(CC)CC)cc1N [Proparacaine hydrochloride, reference compound] |  | 0.5 | 
31 | CC(C)c1cccc(C(C)C)c1O [Propofol, reference compound] |  |  | Z-SCORE: -0.98
32 | CCCc1cc(=O)[nH]c(=S)[nH]1 [Propylthiouracil, reference compound] |  | 0.58 | 
33 | CCCCC[C@H](O)/C=C/[C@H]1[C@H](O)CC(=O)[C@@H]1CCCCCCC(=O)O [Prostaglandin E1] | 0.18 |  | 
34 | CNCCC(Oc1ccc(C(F)(F)F)cc1)c1ccccc1 (stereo not drawn) [Prozac, reference compound] |  | -1.46 | 
35 | NC(=O)c1cnccn1 [Pyrazinamide, reference compound] |  | 1.05 | 
36 | CCc1nc(N)nc(N)c1-c1ccc(Cl)cc1 [Pyrimethamine, reference compound] |  | 0.29 | 
37 | OCCOCCN1CCN(C2=Nc3ccccc3Sc3ccccc32)CC1 [QUETIAPINE HEMIFUMARATE] |  |  | Z-SCORE [1]: -1.26
38 | CCOC(=O)[C@H](CCc1ccccc1)N[C@@H](C)C(=O)N1Cc2ccccc2C[C@H]1C(=O)O [Quinapril hydrochloride, reference compound] |  | -1.66 | 
39 | CN1CCc2cc(Cl)c(O)cc2[C@@H](c2ccccc2)C1.Cl [R(+)-SCH-23390 hydrochloride] | 0.87 |  | 
40 | COCCCOc1ccnc(C[S+]([O-])c2nc3ccccc3[nH]2)c1C (stereo not drawn) [RABEPRAZOLE] | -0.02 |  | 
41 | Cc1nc2ccc(CN(C)c3ccc(C(=O)N[C@@H](CCC(=O)O)C(=O)O)s3)cc2c(=O)[nH]1 [RALTITREXED] | -0.52 |  | 
42 | CCOc1cc(CC(=O)N[C@@H](CC(C)C)c2ccccc2N2CCCCC2)ccc1C(=O)O [REPAGLINIDE] | 1.38 |  | 
43 | CO[C@H]1/C=C/O[C@@]2(C)Oc3c(C)c(O)c4c(O)c(c(/C=N/N5CCN(C)CC5)c(O)c4c3C2=O)NC(=O)/C(C)=C\C=C\[C@H](C)[C@H](O)[C@@H](C)[C@@H](O)[C@@H](C)[C@H](OC(C)=O)[C@@H]1C [RIFAMPICIN, reference compound] |  | -0.22 | 
44 | CO[C@H]1/C=C/O[C@@]2(C)Oc3c(C)c(O)c4c(O)c(c(/C=N/N5CCN(C6CCCC6)CC5)c(O)c4c3C2=O)NC(=O)/C(C)=C\C=C\[C@H](C)[C@H](O)[C@@H](C)[C@@H](O)[C@@H](C)[C@H](OC(C)=O)[C@@H]1C [RIFAPENTINE, reference compound] | 0.75 | 0.91 | 
45 | CO[C@H]1/C=C/O[C@@]2(C)Oc3c(C)c(O)c4c(O)c(c5c(nc6cc(C)ccn65)c4c3C2=O)NC(=O)/C(C)=C\C=C\[C@H](C)[C@H](O)[C@@H](C)[C@@H](O)[C@@H](C)[C@H](OC(C)=O)[C@@H]1C [RIFAXIMIN] | 0.05 |  | 
46 | Cc1nc2n(c(=O)c1CCN1CCC(c3noc4cc(F)ccc34)CC1)CCCC2 [RISPERIDONE] | 0 |  | 

Row | Compound | Z-SCORE [2] | Z-SCORE [3] | also measured
47 | CC(C)c1nc(CN(C)C(=O)N[C@H](C(=O)N[C@@H](Cc2ccccc2)C[C@H](O)[C@H](Cc2ccccc2)NC(=O)OCc2cncs2)C(C)C)cs1 [RITONAVIR] | -0.37 |  | 
48 | CN(C)CCc1c[nH]c2ccc(Cn3cncn3)cc12 [RIZATRIPTAN BENZOATE] | -0.76 |  | 
49 | CS(=O)(=O)c1ccc(C2=C(c3ccccc3)C(=O)OC2)cc1 [ROFECOXIB] | 0.81 |  | 
50 | COc1ccc(C2CNC(=O)C2)cc1OC1CCCC1 (stereo not drawn) [ROLIPRAM] | 1.06 |  | 
51 | CN(C)[C@@H]1C(O)=C(C(=O)NCN2CCCC2)C(=O)[C@@]2(O)C(O)=C3C(=O)c4c(O)cccc4[C@@](C)(O)[C@H]3C[C@@H]12 [ROLITETRACYCLINE] | -0.5 |  | 
52 | CCCN1CCCC[C@H]1C(=O)Nc1c(C)cccc1C [ROPIVACAINE HCl] | -0.05 |  | 
53 | CN(CCOc1ccc(CC2SC(=O)NC2=O)cc1)c1ccccn1.Cl (stereo not drawn) [ROSIGLITAZONE HCl] | 0.11 |  | 
54 | CN(CCOc1ccc(CC2SC(=O)NC2=O)cc1)c1ccccn1 (stereo not drawn) [ROSIGLITAZONE MALEATE] | -0.83 |  | 
55 | CC(=O)OCC(=O)NCCCOc1cccc(CN2CCCCC2)c1 [ROXATIDINE ACETATE HCl] | -0.59 |  | 
56 | COc1ccc2[nH]cc(C3=CCNCC3)c2c1 [RU 24969] | 0.79 |  | 
57 | CN1CCN(c2c(F)cc3c(=O)c(C(=O)O)cn4c3c2SCC4)CC1.Cl [RUFLOXACIN HCl] | 1.1 |  | 
58 | C[C@@H]1O[C@@H](OC[C@H]2O[C@@H](Oc3c(-c4ccc(O)c(O)c4)oc4cc(O)cc(O)c4c3=O)[C@H](O)[C@@H](O)[C@@H]2O)[C@H](O)[C@H](O)[C@H]1O [RUTIN] | 0.13 |  | 
59 | CCN1CCC[C@H]1CNC(=O)c1c(O)c(Cl)cc(Cl)c1OC [Raclopride] | -0.81 |  | 
60 | CNC(=C[N+](=O)[O-])NCCSCc1ccc(CN(C)C)o1 [Ranitidine hydrochloride, reference compound] |  | -0.51 | 
61 | COc1ccccc1OCC(O)CN1CCN(CC(=O)Nc2c(C)cccc2C)CC1 (stereo not drawn) [Ranolazine dihydrochloride] | 0.21 |  | 
62 | C[C@]12CCC(=O)C=C1CC[C@@H]1[C@@H]2CC[C@@]2(C)[C@H]1CC[C@]2(O)C(=O)CO [ReichsteinÂ’s substanceÂ S] |  |  | Z-SCORE [1]: -1.82
63 | Oc1ccc(/C=C/c2cc(O)cc(O)c2)cc1 [Resveratrol] | 2.61 |  | 
64 | CC1=C(/C=C/C(C)=C/C=C/C(C)=C/C(=O)O)C(C)(C)CCC1 [Retinoic acid, reference compound] |  | 1.72 | 
65 | NC(=O)c1ncn([C@@H]2O[C@H](CO)[C@@H](O)[C@H]2O)n1 [Ribavirin, reference compound] |  | 0.53 | 
66 | CO[C@H]1/C=C/O[C@@]2(C)Oc3c(C)c(O)c4c(c3C2=O)C2=NC3(CCN(CC(C)C)CC3)NC2=C(NC(=O)/C(C)=C\C=C\[C@H](C)[C@H](O)[C@@H](C)[C@@H](O)[C@@H](C)[C@H](OC(C)=O)[C@@H]1C)C4=O [Rifabutin, reference compound] | 0.07 | -1.04 | 
67 | Nc1nc2ccc(OC(F)(F)F)cc2s1 [Riluzole] | -0.53 |  | 
68 | C[C@@H]1CN(CCCn2c3ccccc3c3ccccc32)C[C@H](C)N1 [Rimcazole] | 0.6 |  | 
